Assay results taken from ChEMBL document CHEMBL4312037, “Fragment hopping-based discovery of novel sulfinylacetamide-diarylpyrimidines (DAPYs) as HIV-1 nonnucleoside reverse transcriptase inhibitors” (Eur J Med Chem, 2020).
pEC50, pIC50: −log10 of the molar value.

Tests used:
[1] = tested on: Human immunodeficiency virus 1; test: Antiviral activity against HIV1 harbouring NNRTI K103N; assay type: functional, organism-based
[2] = tested on: Human immunodeficiency virus 1; test: Antiviral activity against HIV1; assay type: functional, organism-based
[3] = molecular target: Human immunodeficiency virus type 1 reverse transcriptase (Human immunodeficiency virus 1, UniProt Q72547)
Description: Inhibition of recombinant wild type HIV-1 His-tagged reverse transcriptase p66/p51 expressed in Escherichia coli JM109 using poly(rA)/oligo(dT)16 as template/primer incubated for 40 mins by pico-green based spectrofluorometric analysis

[4] = Cytotoxicity against human MT4 cells assessed as reduction in cell viability incubated for 5 days by MTT assay; assay type: cell-based
[5] = tested on: Human immunodeficiency virus 1; test: Antiviral activity against HIV1 3B harbouring NNRTI K103N mutant infected in human MT4 cells assessed as virus-induced cytopathic effect incubated for 5 days by MTT assay; assay type: functional, organism-based; conditions: Human immunodeficiency virus 1, 3B, MT4, 120 h
[6] = tested on: Human immunodeficiency virus 1; test: Antiviral activity against HIV1 3B infected in human MT4 cells assessed as virus-induced cytopathic effect incubated for 5 days by MTT assay; assay type: functional, organism-based; conditions: Human immunodeficiency virus 1, 3B, MT4, 120 h
in vitro [7] = conditions: human, MT4 cells; MT4 cells infected with HIV1 3B
Description: Selectivity index, ratio of CC50 for cytotoxicity against human MT4 cells to EC50 for antiviral activity against HIV1 3B infected in human MT4 cells

in vitro [8] = conditions: human, MT4 cells; MT4 cells infected with HIV1 3B K103N mutant
Description: Selectivity index, ratio of CC50 for cytotoxicity against human MT4 cells to EC50 for antiviral activity against HIV1 3B harbouring NNRTI K103N mutant infected in human MT4 cells

[9] = Stability in rat liver microsomes assessed as intrinsic clearance; assay type: ADME, Microsome; conditions: read-out: CLH
[10] = Stability in rat liver microsomes assessed as half life; assay type: ADME, Microsome
[11] = Stability in human liver microsomes assessed as half life; assay type: ADME, Microsome
[12] = Stability in human liver microsomes assessed as intrinsic clearance; assay type: ADME, Microsome; conditions: read-out: CLH

Row | SMILES | pEC50 [1] | pEC50 [2] | pIC50 [3] | CC50 at 120 h [4] | pEC50 [5] | pEC50 [6] | selectivity ratio (in vitro [7]) | selectivity ratio (in vitro [8]) | microsomal CLint [9] | half-life [10] | half-life [11] | microsomal CLint [12]
1 | O=C(CSc1nnc(Br)n1-c1ccc(C2CC2)c2ccccc12)Nc1ccc(C(=O)O)cc1Cl | > 8.52 | 8.55 |  |  |  |  |  |  |  |  |  | 
2 | COc1cc2nc([S+]([O-])CC(=O)Nc3ccc([N+](=O)[O-])cc3)nc(Nc3c(C)cc(/C=C/C#N)cc3C)c2cc1OC (stereo not drawn) |  |  | 7.96 | 189000 nM | 7.80 | 7.39 | 4590 | 12100 |  |  |  | 
3 | COc1cc2nc([S+]([O-])CC(=O)Nc3ccc(C#N)cc3)nc(Nc3c(C)cc(/C=C/C#N)cc3C)c2cc1OC (stereo not drawn) |  |  | 8.24 | > 221000 nM | 7.98 | 7.60 | > 8870 | > 21200 | 8.58 µL/min/mg | 1.35 h | 1.37 h | 8.45 µL/min/mg
